System: patients with prior myocardial infarction (CARE study)
Assay: CARE: association of SNPs with pravastatin treatment in cardiovascular events prevention (logistic regression, odds ratio pravastatin vs placebo by genotype; Table 8)
Assay type: in vivo, human
Details: for Fatal/Non-fatal Cerebrovascular Disease, Prava vs. Placebo Odds Ratio (95% CI): ABCA1 hCV2741051, All Patients; for 1st Stroke Occurred During CARE, n/total (%) / Any Report of Stroke During CARE, n/total (%) / Fatal/Non-fatal Cerebrovascular Disease, n/total (%) / Prava vs. Placebo Odds Ratio, 0 Rare Alleles / Prava vs. Placebo Odds Ratio, 1 Rare Alleles / Prava vs. Placebo Odds Ratio, 2 Rare Alleles / Odds ratio pravastatin vs placebo / Fatal CHD/Definite Non-fatal MI, n/total (%) / Hosp. for Unstable Angina, n/total (%) / Total Coronary Heart Disease Events, n/total (%): All Patients; for 1st Stroke Occurred During CARE, n/total (%) / Any Report of Stroke During CARE, n/total (%) / Fatal/Non-fatal Cerebrovascular Disease, n/total (%) / Fatal CHD/Definite Non-fatal MI, n/total (%) / Hosp. for Unstable Angina, n/total (%) / Total Coronary Heart Disease Events, n/total (%): Prava; for Catheterization, n/total (%): ABCC8 hCV600632, All Patients; for Catheterization, n/total (%) / Nonfatal MI (Probable/Definite), n/total (%) / Nonfatal MI (def & prob), n/total (%): Prava arm
Text: In order to identify genetic markers associated with acute coronary events (e.g. MI, stroke, unstable angina, congestive heart failure, etc.) or response to statin treatment for the prevention of coronary events, samples from the Cholesterol and Recurrent Events (CARE) study (a randomized multicentral double-blinded trial on secondary prevention of acute coronary events with pravastatin) (Sacks et al., 1991, Am. J. Cardiol. 68: 1436-1446) were genotyped. A well-documented myocardial infarction (MI) was one of the enrollment criteria for entry into the CARE study. Patients were enrolled in the CARE trial from 80 participating study centers. […] Patients were randomized to receive either 40 mg of pravastatin once daily or a matching placebo. The primary endpoint of the trial was death from coronary heart disease and the median duration of follow-up was 5.0 years (range, 4.0 to 6.2 years). […] Secondary endpoints of other related cardiovascular or metabolic disease events, and changes in clinical variables were also recorded in pravastatin-treated and placebo groups. All individuals included in the study had signed a written informed consent form and the study protocol was approved by the respective Institutional Review Boards (IRBs).
For genotyping SNPs in CARE patient samples, DNA was extracted from blood samples using conventional DNA extraction methods such as the QIA-amp kit from Qiagen. Genotypes were obtained on an ABI PRISM® 7900HT Sequence Detection PCR system (Applied Biosystems, Foster City, Calif.) by kinetic allele-specific PCR, similar to the method described by Germer et al. (Germer S., Holland M. J., Higuchi R. 2000, Genome Res. 10: 258-266).
Statistical analysis for association of SNPs with pravastatin treatment in cardiovascular events prevention (Table 8) was carried out using an overall logistic regression model that included an intercept, a parameter for the effect of a genotype containing two rare alleles versus a genotype containing no rare alleles, a parameter for the effect of a genotype containing one rare allele versus a genotype containing no rare alleles, a parameter for the effect of use of pravastatin versus the use of placebo, and parameters for the interaction effects between SNP genotypes and pravastatin use. The test of the overall model is a chi-square test with two degrees of freedom for analyses containing all three genotypes, and one degree of freedom for analyses containing two genotypes.
Effect sizes were estimated through odds ratios (pravastatin group versus placebo) for carriers of each genotype (groups of 0, 1, and 2 minor allele carriers). The effect was considered to be significant if p-value for testing whether any of the interactions between SNP genotypes and pravastatin use were <0.05. […] Odds ratios less than one indicate that the specific SNP allele has a protective effect and odds ratios greater than one indicate that the specific SNP allele has an adverse effect.

[1] = ABCA1 hCV2741051, 1 Rare Allele, n/total 5/651
[2] = ABCA1 hCV2741051, 1st Stroke Occurred During CARE
[3] = ABCA1 hCV2741051, 2 Rare Alleles, n/total 2/127
[4] = ABCA1 hCV2741051, Any Report of Stroke During CARE
[5] = ADAMTS13 hCV11571465, All Patients, 0 Rare Alleles
[6] = ADAMTS13 hCV11571465, All Patients, 1 Rare Allele
[7] = ADAMTS13 hCV11571465, All Patients, 2 Rare Alleles
[8] = AGTR1 hCV3187716, Fatal CHD/Definite Non-fatal MI
[9] = AGTR1 hCV3187716, Hosp. for Unstable Angina
[10] = AGTR1 hCV3187716, Total Coronary Heart Disease Events

## CC[C@H](C)C(=O)O[C@H]1C[C@H](O)C=C2C=C[C@H](C)[C@H](CC[C@@H](O)C[C@@H](O)CC(=O)O)[C@H]21 [pravastatin]
0 Rare Alleles
  Fatal/Non-fatal Cerebrovascular Disease, Prava vs. Placebo Odds Ratio (95% CI): 0.98
  Catheterization, n/total (%): (12.0%)
1 Rare Alleles
  Fatal/Non-fatal Cerebrovascular Disease, Prava vs. Placebo Odds Ratio (95% CI): 0.43
2 Rare Alleles
  Fatal/Non-fatal Cerebrovascular Disease, Prava vs. Placebo Odds Ratio (95% CI): 0.26
  Catheterization, n/total (%): (10.2%)
ABCA1 hCV2741051, 0 Rare Alleles, n/total 26/730
  1st Stroke Occurred During CARE, n/total (%): (3.6%)
ABCA1 hCV2741051, 0 Rare Alleles, n/total 27/730
  Any Report of Stroke During CARE, n/total (%): (3.7%)
ABCA1 hCV2741051, 0 Rare Alleles, n/total 51/730
  Fatal/Non-fatal Cerebrovascular Disease, n/total (%): (7.0%)
[1]
  1st Stroke Occurred During CARE, n/total (%): (0.8%)
  Any Report of Stroke During CARE, n/total (%): (0.8%)
ABCA1 hCV2741051, 1 Rare Allele, n/total 18/651
  Fatal/Non-fatal Cerebrovascular Disease, n/total (%): (2.8%)
[2]
  Prava vs. Placebo Odds Ratio, 0 Rare Alleles: 0.98
  Prava vs. Placebo Odds Ratio, 1 Rare Alleles: 0.26
  Prava vs. Placebo Odds Ratio, 2 Rare Alleles: 0.23
[3]
  1st Stroke Occurred During CARE, n/total (%): (1.6%)
  Any Report of Stroke During CARE, n/total (%): (1.6%)
ABCA1 hCV2741051, 2 Rare Alleles, n/total 3/127
  Fatal/Non-fatal Cerebrovascular Disease, n/total (%): (2.4%)
[4]
  Prava vs. Placebo Odds Ratio, 0 Rare Alleles: 0.92
  Prava vs. Placebo Odds Ratio, 1 Rare Alleles: 0.21
  Prava vs. Placebo Odds Ratio, 2 Rare Alleles: 0.23
1 Rare Allele
  Catheterization, n/total (%): (8.8%)
ABCC8 hCV600632, Catheterization, 0 rare alleles
  Odds ratio pravastatin vs placebo: 1.21
ABCC8 hCV600632, Catheterization, 1 rare allele
  Odds ratio pravastatin vs placebo: 0.55
ABCC8 hCV600632, Catheterization, 2 rare alleles
  Odds ratio pravastatin vs placebo: 0.81
[5]
  Nonfatal MI (Probable/Definite), n/total (%): (9.1%)
  Nonfatal MI (def & prob), n/total (%): (9.1%)
[6]
  Nonfatal MI (Probable/Definite), n/total (%): (10.3%)
  Nonfatal MI (def & prob), n/total (%): (9.6%)
[7]
  Nonfatal MI (Probable/Definite), n/total (%): (6.6%)
  Nonfatal MI (def & prob), n/total (%): (6.2%)
ADAMTS13 hCV11571465, Nonfatal MI (Probable/Definite), 0 rare alleles
  Odds ratio pravastatin vs placebo: 0.62
ADAMTS13 hCV11571465, Nonfatal MI (Probable/Definite), 1 rare allele
  Odds ratio pravastatin vs placebo: 0.88
ADAMTS13 hCV11571465, Nonfatal MI (Probable/Definite), 2 rare alleles
  Odds ratio pravastatin vs placebo: 0.38
ADAMTS13 hCV11571465, Nonfatal MI (def & prob), 0 rare alleles
  Odds ratio pravastatin vs placebo: 0.65
ADAMTS13 hCV11571465, Nonfatal MI (def & prob), 1 rare allele
  Odds ratio pravastatin vs placebo: 0.91
ADAMTS13 hCV11571465, Nonfatal MI (def & prob), 2 rare alleles
  Odds ratio pravastatin vs placebo: 0.37
AGTR1 hCV3187716, 0 Rare Alleles, n/total 63/769
  Fatal CHD/Definite Non-fatal MI, n/total (%): (8.2%)
AGTR1 hCV3187716, 0 Rare Alleles, n/total 120/769
  Hosp. for Unstable Angina, n/total (%): (15.6%)
AGTR1 hCV3187716, 0 Rare Alleles, n/total 227/769
  Total Coronary Heart Disease Events, n/total (%): (29.5%)
AGTR1 hCV3187716, 1 Rare Allele, n/total 72/625
  Fatal CHD/Definite Non-fatal MI, n/total (%): (11.5%)
AGTR1 hCV3187716, 1 Rare Allele, n/total 103/625
  Hosp. for Unstable Angina, n/total (%): (16.5%)
AGTR1 hCV3187716, 1 Rare Allele, n/total 194/625
  Total Coronary Heart Disease Events, n/total (%): (31.0%)
AGTR1 hCV3187716, 2 Rare Alleles, n/total 5/120
  Fatal CHD/Definite Non-fatal MI, n/total (%): (4.2%)
AGTR1 hCV3187716, 2 Rare Alleles, n/total 8/120
  Hosp. for Unstable Angina, n/total (%): (6.7%)
AGTR1 hCV3187716, 2 Rare Alleles, n/total 20/120
  Total Coronary Heart Disease Events, n/total (%): (16.7%)
[8]
  Prava vs. Placebo Odds Ratio, 0 Rare Alleles: 0.63
  Prava vs. Placebo Odds Ratio, 1 Rare Alleles: 0.95
  Prava vs. Placebo Odds Ratio, 2 Rare Alleles: 0.24
[9]
  Prava vs. Placebo Odds Ratio, 0 Rare Alleles: 0.89
  Prava vs. Placebo Odds Ratio, 1 Rare Alleles: 0.90
  Prava vs. Placebo Odds Ratio, 2 Rare Alleles: 0.27
[10]
  Prava vs. Placebo Odds Ratio, 0 Rare Alleles: 0.80
  Prava vs. Placebo Odds Ratio, 1 Rare Alleles: 0.82
  Prava vs. Placebo Odds Ratio, 2 Rare Alleles: 0.38
APOE hCV905013, All Patients, 0 Rare Alleles
  Nonfatal MI (Probable/Definite), n/total (%): (8.4%)
APOE hCV905013, All Patients, 1 Rare Allele
  Nonfatal MI (Probable/Definite), n/total (%): (10.4%)
APOE hCV905013, All Patients, 2 Rare Alleles
  Nonfatal MI (Probable/Definite), n/total (%): (7.8%)
APOE hCV905013, Nonfatal MI (Probable/Definite), 0 rare alleles
  Odds ratio pravastatin vs placebo: 0.51

Source: US9932637B2, “Genetic polymorphisms associated with cardiovascular disorders and drug response, methods of detection and uses thereof” (CELERA CORPORATION, priority 2003, dated 2018)
